In patent US10662182B2, “Microbiocidal thiazole derivatives” (SYNGENTA PARTICIPATIONS AG, priority 2016, dated 2020) one finds pest or weed control, inhibition of growth and melting point data, which are given here for three compounds.

A value given as a limit tells only on which side of the number the result lay.

Data set [1] concerns Blumeria graminis f. Sp. Tritici (Erysiphe graminis f. Sp. Tritici). Kind of data set: Blumeria graminis f. sp. tritici / wheat / leaf disc preventative (powdery mildew on wheat). Particulars: foliar, 200 ppm in the formulation, wheat leaf segments cv. Kanzler, compared to untreated checks, read-out: disease control. It is filed as in vivo. From the text:
Blumeria graminis f. Sp. Tritici (Erysiphe graminis f. Sp. Tritici)/Wheat/Leaf Disc Preventative (Powdery Mildew on Wheat) Wheat leaf segments cv. Kanzler are placed on agar in a multiwell plate (24-well format) and sprayed with the test compound formulated with DMSO and Tween20 and diluted in water. The leaf disks are inoculated by shaking powdery mildew infected plants above the test plates 1 day after application.

For data set [2], the system named is Glomerella lacenarium (Colletotrichum lacenarium). Kind of data set: Glomerella lagenarium / liquid culture (anthracnose). Particulars: 200 ppm in the formulation, inhibition of growth measured photometrically, compared to untreated checks, read-out: disease control. It is filed as cell-based. On the procedure: Glomerella lacenarium (Colletotrichum lacenarium)/Liquid Culture (Anthracnose) Conidia of the fungus from cryogenic storage are directly mixed into nutrient broth (PDB potato dextrose broth). After placing a (DMSO) solution of test compound into a microtiter plate (96-well format), the nutrient broth containing the fungal spores is added. The test plates are incubated at 24° C. and the inhibition of growth is measured photometrically 3 to 4 days after application.

The test system of data set [3] is Magnaporthe risea (Pyricularia oryzae). Kind of data set: whole plant or invertebrate. It is filed as in vivo. Conditions: foliar, read-out: disease control.
The subject of data set [4] is Monocraphella nivalis (Microdochium nivale). Kind of data set: Monographella nivalis / liquid culture (foot rot cereals). The format is cell-based. Conditions: 200 ppm in the formulation, inhibition of growth determined photometrically, compared to untreated checks, read-out: disease control. On the procedure:
Monocraphella nivalis (Microdochium nivale)/Liquid Culture (Foot Rot Cereals) Conidia of the fungus from cryogenic storage are directly mixed into nutrient broth (PDB potato dextrose broth). After placing a (DMSO) solution of test compound into a microtiter plate (96-well format), the nutrient broth containing the fungal spores is added. The test plates are incubated at 24° C. and the inhibition of growth is determined photometrically 4-5 days after application.

Data set [5] relates to Mycosphaerella arachidis (Cercospora arachidicola). Kind of data set: Mycosphaerella arachidis / liquid culture (early leaf spot). It is filed as cell-based. Conditions: 200 ppm in the formulation, inhibition of growth determined photometrically, compared to untreated checks, read-out: disease control. Here is the method:
Mycosphaerella arachidis (Cercospora arachidicola)/Liquid Culture (Early Leaf Spot) Conidia of the fungus from cryogenic storage are directly mixed into nutrient broth (PDB potato dextrose broth). After placing a (DMSO) solution of test compound into a microtiter plate (96-well format), the nutrient broth containing the fungal spores is added. The test plates are incubated at 24° C. and the inhibition of growth is determined photometrically 4-5 days after application.

Data set [6] relates to Mycosphaerella raminicola (Septoria tritici). Kind of data set: Mycosphaerella graminicola / liquid culture (Septoria blotch). The format is cell-based. Particulars: 200 ppm in the formulation, inhibition of growth determined photometrically, compared to untreated checks, read-out: disease control. Here is the method:
Mycosphaerella raminicola (Septoria tritici)/Liquid Culture (Septoria blotch) Conidia of the fungus from cryogenic storage are directly mixed into nutrient broth (PDB potato dextrose broth). After placing a (DMSO) solution of test compound into a microtiter plate (96-well format), the nutrient broth containing the fungal spores is added. The test plates are incubated at 24° C. and the inhibition of growth is determined photometrically 4 to 5 days after application.

Data set [7] has as its system Puccinia recondita f. Sp. Tritici. Kind of data set: Puccinia recondita f. sp. tritici / wheat / leaf disc preventative (brown rust). It is filed as in vivo. Particulars: foliar, 200 ppm in the formulation, wheat leaf segments cv. Kanzler, compared to untreated checks, read-out: disease control.
A further data set has as its system Pyrenophora teres. Kind of data set: Pyrenophora teres / barley / leaf disc preventative (net blotch). The format is in vivo. Particulars: foliar, 200 ppm of the formulation, barley leaf segments cv. Hasso, compared to untreated checks, read-out: disease control. Here is the method: Pyrenophora teres/Barley/Leaf Disc Preventative (Net Blotch) Barley leaf segments cv. Hasso are placed on agar in a multiwell plate (24-well format) and sprayed with the test compound formulated with DMSO and Tween20 and diluted in water. The leaf segments are inoculated with a spore suspension of the fungus 2 days after application. The inoculated leaf segments are incubated at 20° C. and 65% rh under a light regime of 12 h light/12 h darkness in a climate cabinet and the activity of a compound is assessed as disease control compared to untreated when an appropriate level of disease damage appears in untreated check leaf segments (5 to 7 days after application).

In data set [8] the test system is Botrvotinia fuckeliana (Botrvtis cinerea). Kind of data set: Botryotinia fuckeliana / liquid culture (gray mould). The format is cell-based. Particulars: Botrytis cinerea, 200 ppm in the formulation, inhibition of growth determined photometrically, compared to untreated checks, read-out: disease control. On the procedure: Botrvotinia fuckeliana (Botrvtis cinerea)/Liquid Culture (Gray Mould) Conidia of the fungus from cryogenic storage are directly mixed into nutrient broth (Vogels broth). After placing a (DMSO) solution of test compound into a microtiter plate (96-well format), the nutrient broth containing the fungal spores is added. The test plates are incubated at 24° C. and the inhibition of growth is determined photometrically 3-4 days after application.

`Cc1sc(Nc2cc(F)cc(F)c2)nc1C(=O)NC1CC12CC2` (stereo not drawn) [I.bb.3, 2-(3,5-difluoroanilino)-5-methyl-N-spiro[2.2]pentan-2-yl-thiazole-4-carboxamide] gave a melting point of 145 to 175 °C. Also, the pest or weed control at 200 ppm in data set [1] is no less than 80%. For the same compound, the inhibition of growth at 200 ppm in data set [2] was no less than 80%. Also, the pest or weed control at 200 ppm in data set [3] was no less than 80%. The inhibition of growth at 200 ppm in data set [4] was no less than 80%. In data set [5], the inhibition of growth at 200 ppm is no less than 80%. Moreover, the inhibition of growth at 200 ppm in [6] was no less than 80%. Moreover, the pest or weed control at 200 ppm in data set [7] was no less than 80%.
On to `Cc1sc(Nc2cc(F)nc(F)c2)nc1C(=O)NC1CC12CC2` (stereo not drawn) [I.bb.43, 2-[(2,6-difluoro-4-pyridyl)amino]-5-methyl-N-spiro[2.2]pentan-2-yl-thiazole-4-carboxamide], for which the melting point fell in the range of 129 to 158 °C. For the same compound, the pest or weed control at 200 ppm in [1] was no less than 80%. Further, the inhibition of growth at 200 ppm in data set [2] was no less than 80%. In data set [3], the pest or weed control at 200 ppm was no less than 80%. The inhibition of growth at 200 ppm in [4] was no less than 80%. Moreover, the inhibition of growth at 200 ppm in data set [5] is no less than 80%. For the same compound, the inhibition of growth at 200 ppm in data set [6] is no less than 80%. Moreover, the pest or weed control at 200 ppm in [7] is no less than 80%. The pest or weed control at 200 µg/mL in the data set with Pyrenophora teres was no less than 80%.
`Cc1sc(Nc2cc(F)nc(F)c2)nc1C(=O)NC1CCC12CCCC2` (stereo not drawn) [I.s.43, 2-[(2,6-difluoro-4-pyridyl)amino]-5-methyl-N-spiro[3.4]octan-3-yl-thiazole-4-carboxamide] displayed a melting point of 156 to 162 °C. The pest or weed control at 200 ppm in data set [1] was no less than 80%. Moreover, the inhibition of growth at 200 ppm in [8] was no less than 80%. The inhibition of growth at 200 ppm in data set [2] was no less than 80%. For the same compound, the pest or weed control at 200 ppm in data set [3] was no less than 80%. Moreover, in [4], the inhibition of growth at 200 ppm is no less than 80%. In data set [5], the inhibition of growth at 200 ppm is no less than 80%. Further, the inhibition of growth at 200 ppm in data set [6] was no less than 80%. Also, the pest or weed control at 200 ppm in [7] was no less than 80%. In addition, in the data set on Pyrenophora teres, the pest or weed control at 200 µg/mL was no less than 80%.

A word on the melting point: it is the temperature of the solid-liquid transition.
